According to publication PMC4456360, “A Recombinant Fungal Lectin for Labeling Truncated Glycans on Human Cancer Cells” (PLoS ONE, 2015):

Tests used:
[1] = tested on: A549 cells; experiment: Flow cytometry, lectin binding to A549 cells (glycosylation inhibitors, glycosidases); format: cell-based, human; settings: for Percentage of inhibition of MAH binding (mean fluorescence intensity): MAH 5 μg ml^-1; for Percentage of inhibition of rPVL binding (mean fluorescence intensity): biotinylated rPVL 1 μg ml^-1
[2] = tested on: HBEC-3KT cell line; format: cell-based, human
[3] = tested on: glandular compartment of the stomach and small intestine; experiment: Labeling of healthy tissues by biotinylated rPVL; settings: 100 mM GlcNAc
Procedure: Ethanol-fixed human trachea, esophagus, duodenal junction, jejunum, colon, pancreas, liver, ovary, uterus and vagina samples were obtained from organ donors. 18 tissue samples from 10 different individuals were used to prepare a tissue microarray (TMA) of healthy tissues.
The tissue sections were deparaffinized, then endogenous peroxidases were blocked by incubating the sections with PBS containing 3% hydrogen peroxide (v/v), for 5 mn. The sections were then blocked with BSA 5% (w/v) for 30 min at room temperature, followed by incubation with 0,7–1 μg ml^-1 biotinylated rPVL 1h at room temperature (Ethanol-fixed sections) or 2 μg ml^-1 of biotinylated rPVL in PBS at 4°C for 18h (for formalin-fixed sections). After washing the sections twice with PBS, an indirect biotin-streptavidin system and DAB (Ventana Medical Systems) or AEC (Vector laboratories) detection kits were used according to the manufacturer’s instructions. The developed slides were washed twice with PBS and counterstained with hematoxylin. After washing with water, the sections were dehydrated and mounted. Sections were observed under a BX41 microscope equipped with a DP-70 digital camera system (Olympus, Tokyo, Japan) or imaged with a NanoZoomer slide-scanner (Hamamatsu, Hamamatsu City).

[4] = tested on: M119; parameters: key to the marks not given beside the values; settings: M119, Melanoma

3-fluoro-peracetyl-neuraminic acid [3F-NeuAc]
Percentage of inhibition of MAH binding (mean fluorescence intensity) ([1]; A549 cells grown 4 days with 100 μM Fluoro-Neu5Ac): 75%
Percentage of inhibition of rPVL binding (mean fluorescence intensity) [1]: 59%

CC(=O)OC1O[C@@H](C)[C@@H](OC(C)=O)[C@@H](OC(C)=O)[C@@H]1F (stereo partly shown) [2-FF, 2-fluoro-peracetyl fucose]
Percentage of inhibition of MAH binding (mean fluorescence intensity) ([1]; A549 cells grown 4 days with 400 μM 2-Fluoro-Fucose, listed as 2F-fucose): did not affect
Percentage of inhibition of rPVL binding (mean fluorescence intensity) ([1]; listed as 2F-fucose): did not affect

CC(=O)N[C@@H]1[C@@H](O)[C@H](O)[C@@H](CO)O[C@H]1O [GlcNAc, N-acetylglucosamine]
inhibition of rPVL binding by GlcNAc (in words) [2]: complete inhibition
inhibition of rPVL staining by GlcNAc (in words) [3]: partial inhibition
Inhibtion by GlcNac (of PVL staining) [4]: ++
